# According to article PMC8333425, “Discovery of a dual Ras and ARF6 inhibitor from a GPCR endocytosis screen” (Nature Communications, 2021):
# pIC50: −log10 of the molar value. Several values for one entry are separate records, joined by “and”; a condition that tells them apart may be missing. Equal values may be shown once.
# Legend:
# [1] = tested on: ERK1/2 activation by AT1R; experiment: Western blot of AT1R-mediated ERK1/2 phosphorylation; format: cell-based, human; details: for p-ERK1/2 over ERK1/2, normalized to basal (0 min), AT1R: Comp 21 50 μM; for p-ERK1/2 over ERK1/2, normalized to basal (0 min), AT1R / ERK 1/2 activation, AT1R (p-ERK1/2 over ERK1/2, fold over basal): individual experiments
# Protocol: HEK293SL cells (10^5 cells per well) were seeded in a poly-L-lysine-coated six-well plate and transiently transfected with 3 μg Flag-AT1R, HA-B2R or HA-β2AR and/or 500 ng Flag-MEK1-WT, Flag-MEK1-DD, Flag-BRAF-WT, Flag-BRAF-V600E, Flag-K-Ras-WT, Flag-K-Ras-G12V, HA-ARF6-WT, or HA-ARF6-T27N. Gαq/11 KO and βarr1/2 KO cells were seeded onto 100 mm dishes at a density of 10^6 cells per dish. Next day, cells were transfected with 3 μg AT1R alone or along with 500 ng of β-arrestin2 using PEI. After 18 h of transfection, cells were detached and re-seeded onto poly-L-lysine coated 12-well plates (~1.5–2 × 10^5cells/well) for subsequent experiments. Forty-eight hours post transfection, in a 37 °C water bath, cells were serum-starved for 30 min, pretreated with DMSO (0.1%) or compound 21/Rasarfin (50 µM or at indicated concentrations) for 30 min, then stimulated or not with the indicated ligand [AngII (1 µM), BK (1 µM), Iso (10 µM) or EGF (100 ng/ml)] at indicated times. Cells were put on ice, washed with PBS and solubilized in 2x laemmli buffer (250 mM Tris–HCl pH 6.8, 2% SDS (w/v), 10% glycerol (v/v), 0.01% bromophenol blue (w/v) and 5% β-mercaptoethanol (v/v)) by heating at 65 °C for 15 min. Lysates were resolved on 10 or 14% SDS-PAGE, transferred to nitrocellulose membranes and immunoblotted for p-ERK1/2, ERK1/2, p-Akt, Akt, HA, Myc, β-actin or FLAG. ImageLab 5.2 software was used to quantify the digital blots as fold of the phosphorylated protein over total protein, which were then normalized as indicated in the figure legends. Uncropped immunoblots are provided in the Source Data file.
# H-Ras = H-Ras (Homo sapiens, UniProt P01112); experiment: In vitro mant-GTP exchange assay, purified H-Ras with purified SOS1; format: biochemical; parameters: the cDNA of H-Ras (full length) was obtained by RT-PCR of HEK293SL; GST (N); host or cells: E. coli BL21
# H-Ras, sequence (P01112 whole entry): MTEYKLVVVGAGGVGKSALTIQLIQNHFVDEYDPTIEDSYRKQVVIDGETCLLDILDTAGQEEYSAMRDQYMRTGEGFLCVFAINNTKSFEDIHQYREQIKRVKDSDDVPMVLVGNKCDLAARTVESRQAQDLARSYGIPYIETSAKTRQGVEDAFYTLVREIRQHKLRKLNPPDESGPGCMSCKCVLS
# Protocol: Ras activity was assessed in a 384-well black bottom plate using the mant-GTP exchange factor assay that measures the uptake of the fluorescent nucleotide analog N-methylanthraniloyl-GTP (mant-GTP) into GTPases. For Ras activation, 2X exchange buffer, 1.66 μg of purified pGEX-6P-1-H-Ras or pGEX-6P-1-K-Ras-WT or pGEX-6P-1-K-Ras-Y32A were added per well in presence of DMSO, different concentrations of Rasarfin (as indicated) or 50 µM of compounds 21.4, 21.7, or 21.8. Using the Infinite 200 Pro plate reader (Tecan) with filters set at 360 nm and 440 nm for detecting the excitation and emissions, respectively, and temperature set at 20 °C, 5 readings were recorded every 5 s before the addition of either H2O, 40 mM EDTA or 0.66 μg purified SOS1. The fluorescence of mant-GTP uptake was measured every 30 sec for 30 min and quantified as the delta relative fluorescence units (RFU), which was calculated as the RFU post-addition minus the 5 averaged RFU pre-addition, per condition.
smiles,measurement,setting,value
"Nn1cnc2scc(-c3ccc(Cc4ccccc4)cc3)c2c1=O [Barbadin, reference compound]",MAPK promoted by AT1R,[1]; Barbadin 100 µM,ineffective at blocking MAPK
CCCC(=O)N1CCN(c2ccc(NC(=O)c3cc4ccccc4o3)cc2Cl)CC1 [Compound 21.8],inhibition of AT1R-mediated ERK1/2 (MAPK) activation (Fig. 8b),[1]; 50 μM,maintained its MAPK inhibitory property
same,"Ras exchange activity, mant-GTP loading into H-Ras with SOS1 (Fig. 8c)",H-Ras; 50 μM,inhibited Ras exchange activity
CC(C)C(=O)N1CCN(c2ccc(NC(=O)c3cc4ccccc4o3)cc2Cl)CC1 [Compound 21],AngII-mediated phosphorylation of ERK1/2,[1]; 50 μM,totally inhibited
same,"p-ERK1/2 over ERK1/2, normalized to basal (0 min), AT1R",[1]; time 0 min,1
same,"p-ERK1/2 over ERK1/2, normalized to basal (0 min), AT1R",[1]; time 2 min,0.1554 and 0.4142 and 0.5216 and 8.819
same,"p-ERK1/2 over ERK1/2, normalized to basal (0 min), AT1R",[1]; time 5 min,0.1741 and 0.568 and 0.6273 and 10.8319
same,Mean Diff. DMSO vs. compound of P-ERK/ERK (fold over Basal) (Dunnett's multiple comparisons test),[1]; Fig.8b,6.88
same,pIC50,"[1]; Homo sapiens, read-out: IC50 for inhibition of ERK1/2 activation by AT1R",5.30
same,"ERK 1/2 activation, AT1R (p-ERK1/2 over ERK1/2, fold over basal)",[1]; Log [Comp 21] (M) -4.3,17.8621 percent compared to DMSO and 9.459 percent compared to DMSO and 11.994 percent compared to DMSO
same,"ERK 1/2 activation, AT1R (p-ERK1/2 over ERK1/2, fold over basal)",[1]; Log [Comp 21] (M) -5,18.3493 percent compared to DMSO and 17.9264 percent compared to DMSO and 17.6879 percent compared to DMSO
same,"ERK 1/2 activation, AT1R (p-ERK1/2 over ERK1/2, fold over basal)",[1]; Log [Comp 21] (M) -5.3,58.8009 percent compared to DMSO and 49.3558 percent compared to DMSO and 49.3771 percent compared to DMSO
same,"ERK 1/2 activation, AT1R (p-ERK1/2 over ERK1/2, fold over basal)",[1]; Log [Comp 21] (M) -6,81.7633 percent compared to DMSO and 93.0329 percent compared to DMSO and 113.57 percent compared to DMSO
same,"ERK 1/2 activation, AT1R (p-ERK1/2 over ERK1/2, fold over basal)",[1]; Log [Comp 21] (M) -6.3,97.88 percent compared to DMSO and 83.5696 percent compared to DMSO
same,"ERK 1/2 activation, AT1R (p-ERK1/2 over ERK1/2, fold over basal)",[1]; Log [Comp 21] (M) -7,100 percent compared to DMSO
same,uptake of mant-GTP into purified H-Ras in presence of SOS1,H-Ras; different concentrations,inhibited in a dose-dependent manner the uptake of GTP into Ras
